Here are results for one substance from patent US20070266957A1 (priority 2004, published 2007).

In the assay the test system is influenza virus (H3N2 type human vaccine New Caledonia strain). In kind it is cell-based.

Read-outs that look alike come from different tables or passages of the source.

hinokitiol copper complex: the anti-influenza virus activity result is “ineffective”. This substance also came in with an FFU (concentration 0.8 μg/ml) of 280 FFU. Moreover, the FFU result (concentration 4 μg/ml) is listed as “Exfoliation”. In addition, where the note is “concentration 20 μg/ml”, the FFU result is “Exfoliation”. In addition, the FFU result (concentration 100 μg/ml) is “Exfoliation”.
